The subject of experiment [1] is platelets (aggregation induced with collagen, arachidonic acid, ADP or PAF). Put plainly: Effect in inhibiting aggulutination of platelets (in vitro), human platelet-rich plasma. It counts as cell-based. The procedure:
1. Effect in inhibiting aggulutination of platelets […]
The blood was collected from a human cubital vein in such a manner as to contain a 3.8% solution of sodium citrate in an amount 1.10 time by volume as much as the blood. Then platelet-rich plasma (PRP) was prepared therefrom according to the method reported by Packham et al. (ct. Packham, M. A., et al, J. Exp. Med., 126, 171-189 (1967)). To 0.2 ml of the obtained PRP, 25 μl portions of solutions of each compound of the present invention (A to E) at various concentrations were added and incubated at 37° C. for three minutes. Then the aggultination of platelets was induced with arachidonic acid, collagen, ADP and PAF. The aggulutination of platelets was evaluated according to the method reported by Mustard et al. (cf. Mustard, J. F., et al., J. Lab. Clin. Med., 64, 548-559 […] with the use of an aggregometer available from Schenko or Niko Bioscience Co. In other words, this test is carried out to examine the effect of platelet aggregation (in vitro).
(§1) The tests were conducted in the same way as shown before from the diphenylethylene derivative. Results for inhibition of aggulutination are shown in Table 3 for the in-vitro test and in Table for the ex-vivo test. The acute toxicity test provided the same results as obtained with the diphenylethylene derivative.

Experiment [2] has as its system platelets (aggregation induced by collagen or arachidonic acid). Put plainly: Effect of inhibiting aggultination of platelets (ex vivo), oral administration to guinea pigs. It counts as in vivo. Particulars: Cavia porcellus, Platelet, 2 h. The procedure:
2. Effect of inhibiting aggultination of platelets (ex vivo)
The compound A to E, which were typical examples of the compound of the present invention, were orally administered to guinea pigs. After two hours, the blood of each animal was collected from the abdominal aorta thereof under etherization. Then the effect of each compound on the aggultination of platelets induced by collagen (3 μg/ml) and arachidonic acid (50 μM) was examined. […] In other words, this test is conducted to examine the effect of platelet aggregation (ex vivo).
as §1

The mark [3] stands for this setting: ADP-induced, human PRP, incubated at 37° C. for three minutes, in vitro, read-out: Effect of inhibiting ADP aggultination IC50.
Where [4] appears, read: PAF-induced, human PRP, incubated at 37° C. for three minutes, in vitro, read-out: Effect of inhibiting PAF aggultination IC50.
Where [5] appears, read: arachidonic acid-induced, human PRP, incubated at 37° C. for three minutes, in vitro, read-out: Effect of inhibiting arachidonic acid aggultination IC50.
[6] abbreviates: collagen-induced, human PRP, incubated at 37° C. for three minutes, in vitro, read-out: Effect of inhibiting collagen aggultination IC50.
The mark [7] stands for this setting: guinea pigs, oral, two hours after administration, arachidonic acid (50 μM), ex vivo, read-out: Effect of inhibiting arachidonic acid aggultination ED50.
Setting [8] is: guinea pigs, oral, two hours after administration, collagen (3 μg/ml), ex vivo, read-out: Effect of inhibiting collagen aggultination ED50.

Where two headings read alike, the source gives them in different places.

Take `COc1ccc(C(=NOC(C#N)CCC(=O)O)c2ccc(OC)cc2)cc1` (centres unmarked) [Cpd. P, 4,4'-Dimethoxybenzophenone O-(1-cyano-3-carboxypropyl)oxime]: the 50% inhibitory concentration (IC50) (usually the concentration at which inhibition is half-maximal) in experiment [1] (setting [3]) is 2700 nM; in experiment [1] (setting [4]), 1500 nM; in experiment [1] (setting [5]) it was 400 nM; in experiment [1] (setting [6]), 1100 nM. The ED50 (commonly the dose that gives a 50% effect, or the effect in half of the subjects) worked out at 0.3 mg/kg in experiment [2] (setting [7]) and 1.1 mg/kg in experiment [2] (setting [8]).
For the compound `COc1ccc(C(=C(C#N)CCC(=O)O)c2ccc(OC)cc2)cc1` [Cpd. D, 4-Cyano-5,5-bis(4-methoxyphenyl)4-pentenoic acid], the IC50 in experiment [1] (Homo sapiens, read-out: Effect of inhibiting ADP aggultination IC50) was 1900 nM; in experiment [1] (Homo sapiens, read-out: Effect of inhibiting PAF aggultination IC50) it was 2800 nM; in experiment [1] (Homo sapiens, read-out: Effect of inhibiting arachidonic acid aggultination IC50), 800 nM; in experiment [1] (Homo sapiens, read-out: Effect of inhibiting collagen aggultination IC50) it was 1700 nM. For the same compound, the ED50 in experiment [2] (po, read-out: Effect of inhibiting arachidonic acid aggultination ED50) worked out at 0.03 mg/kg; in experiment [2] (po, read-out: Effect of inhibiting collagen aggultination ED50) it was 0.05 mg/kg.
As for `COc1ccc(C(=CCNS(=O)(=O)c2ccccc2)c2ccc(OC)cc2)cc1` [Cpd. B, N-[3,3-Bis(4-methoxyphenyl)allyl]benzensulfonamide], the IC50 in experiment [1] (setting [3]) turned out to be 2000 nM; in experiment [1] (setting [4]), 2500 nM; in experiment [1] (setting [5]) it was 900 nM; in experiment [1] (setting [6]), 1400 nM. Besides, the 50% effective dose (ED50) in experiment [2] (setting [7]) and in experiment [2] (setting [8]) was 20 mg/kg each time.
`CCOC(=O)CCC(C#N)ON=C(c1ccc(OC)cc1)c1ccc(OC)cc1` (centres unmarked) [Cpd. O, 4,4'Dimethoxybenzophenone O-(1-cyano-3-ethoxycarbonylpropyl)oxime]: the IC50 was 20000 nM in experiment [1] (setting [3]), 14500 nM in experiment [1] (setting [4]), 7000 nM in experiment [1] (setting [5]) and 14000 nM in experiment [1] (setting [6]). Besides, the 50% effective dose (ED50) was 0.3 mg/kg in experiment [2] (setting [7]) and 1 mg/kg in experiment [2] (setting [8]).
Take `CCOC(=O)CC(=O)CON=C(c1ccc(OC)cc1)c1ccc(OC)cc1` [Cpd. L, 4,4'-dimethoxybenzophenone-O-(3-ethoxycarbonyl-2-oxopropyl)oxime]: the concentration for half-maximal inhibition (IC50) worked out at 800 nM in experiment [1] (setting [3]), 1200 nM in experiment [1] (setting [4]), 100 nM in experiment [1] (setting [5]) and 500 nM in experiment [1] (setting [6]). For the same compound, the median effective dose (ED50) in experiment [2] (setting [7]) and in experiment [2] (setting [8]) was 30 mg/kg in each case.
`CCOC(=O)CC(CON=C(c1ccc(OC)cc1)c1ccc(OC)cc1)=NOC` [Cpd. M, 4,4'-Dimethoxybenzophenone O-(3-ethoxycarbonyl-2-methoxyiminopropyl)oxime]: the half-inhibitory concentration (IC50) amounted to 13200 nM in experiment [1] (setting [3]), 20000 nM in experiment [1] (setting [4]), 12500 nM in experiment [1] (setting [5]) and 14000 nM in experiment [1] (setting [6]). The ED50 in experiment [2] (setting [7]) and in experiment [2] (setting [8]) was 55 mg/kg in each case.
As for `COC(=O)CCCC(C#N)=C(c1ccc(OC)cc1)c1ccc(OC)cc1` [Cpd. E, Methyl 5-cyano-6,6-bis(4-methoxyphenyl)-5-hexenoate], the IC50 in experiment [1] (setting [3]) is 200 nM; in experiment [1] (setting [4]), 1300 nM; in experiment [1] (setting [5]) it was 60 nM; in experiment [1] (setting [6]), 150 nM. The values for the 50% effective dose (ED50) in experiment [2] (setting [7]) and in experiment [2] (setting [8]) were 0.3 mg/kg and 1 mg/kg, respectively.
As to `COc1ccc(C(=CC(=O)NCc2ccccc2)c2ccc(OC)cc2)cc1` [Cpd. A, N-Benzyl-3,3-bis(4-methoxyphenyl)acrylamide], the IC50 in experiment [1] (setting [3]) turned out to be 5000 nM; in experiment [1] (setting [4]), 15000 nM; in experiment [1] (setting [5]) it was 5000 nM; in experiment [1] (setting [6]) it was 20000 nM. Moreover, the ED50 in experiment [2] (setting [7]) and in experiment [2] (setting [8]) was 100 mg/kg each time.
In the case of `CON=C(CON=C(c1ccc(OC)cc1)c1ccc(OC)cc1)CC(=O)O` [Cpd. N, 4,4'-Dimethoxybenzophenone O-(3-carboxy-2-methoxyiminopropyl)oxime], the 50% inhibitory concentration (IC50) in experiment [1] (setting [3]) turned out to be 5000 nM; in experiment [1] (setting [4]) it was 4100 nM; in experiment [1] (setting [5]), 700 nM; in experiment [1] (setting [6]), 2800 nM. Further, the ED50 stood at 0.3 mg/kg in experiment [2] (setting [7]) and 1.3 mg/kg in experiment [2] (setting [8]).
In the case of `COc1ccc(C(=NOC(C#N)CCCC(=O)O)c2ccc(OC)cc2)cc1` (centres unmarked) [Cpd. R, 4,4'-Dimethoxybenzophenone O-(1-cyano-4-carboxybutyl)oxime], the half-inhibitory concentration (IC50) amounted to 85000 nM in experiment [1] (setting [3]), 79000 nM in experiment [1] (setting [4]), 50000 nM in experiment [1] (setting [5]) and 80000 nM in experiment [1] (setting [6]). For the same compound, the ED50 in experiment [2] (setting [7]) and in experiment [2] (setting [8]) was ≤ 100 mg/kg each time.
Turning to `Clc1ccccc1CN1CCc2sccc2C1` [Ticlopidine, reference compound], the median effective dose (ED50) was 150 mg/kg in experiment [2] (setting [7]) and ≤ 200 mg/kg in experiment [2] (setting [8]).
Take `CCOC(=O)CCC(C#N)=C(c1ccc(OC)cc1)c1ccc(OC)cc1` [Cpd. C, Ethyl 4-cyano-5,5-bis(4-methoxyphenyl)-4-pentenoate]: the IC50 came out at 200 nM in experiment [1] (setting [3]), 1800 nM in experiment [1] (setting [4]), 70 nM in experiment [1] (setting [5]) and 200 nM in experiment [1] (setting [6]). The ED50 in experiment [2] (setting [7]) was 0.03 mg/kg; in experiment [2] (setting [8]) it was 0.05 mg/kg.
Take `COC(=O)CCCC(C#N)ON=C(c1ccc(OC)cc1)c1ccc(OC)cc1` (centres unmarked) [Cpd. Q, 4,4'-Dimethoxybenzophenone O-(1-cyano-4-methoxycarbonylbutyl)oxime]: the IC50 in experiment [1] (setting [3]) amounted to 35000 nM; in experiment [1] (setting [4]), 37000 nM; in experiment [1] (setting [5]), 12000 nM; in experiment [1] (setting [6]), 36000 nM. Moreover, the ED50 in experiment [2] (setting [7]) stood at 50 mg/kg; in experiment [2] (setting [8]) it was 88 mg/kg.

Values taken from patent US4954523A, “Benzophenone oxime ether compounds, pharmaceutical compositions and treatment methods” (Eisai Co., Ltd., priority 1986, dated 1990).
